Results as given in EP0053015A1, “1-Phenylthio-2-aminopropane derivatives, their production and use” (Takeda Chemical Industries, Ltd., priority 1980, dated 1982).
Counter-ions that a name gives are not always drawn. Like-named read-outs stand apart in the source and are kept apart here.

Key:
Format in all cases: in vivo
[1] = Suppression of food intake in mice; settings: Mus musculus, male ICR mice, 50 mg/kg oral, given 0.5 hour before feeding, food intake of control animals = 100%, (NS) = not statistically significant
Procedure: Male ICR mice, 7 weeks old, were acclimatised to six-hours-a-day feeding (CE-2 powder, Clea Japan) for 7 days and those animals showing a constant food intake were used in groups of 6 individuals. Each test compound was dissolved in a 5% aqueous solution of gum arabic and orally administered to mice at a dose level of 50 mg/kg as compound (I) at 0.5 hour before feeding on the 8th day. Control animals received a 5% solution of gum arabic only. Each figure in the table is the percent food intake with the food intake of control animals being taken as 100%.
In the table, the figures accompanied by NS in parentheses mean that the difference from control was not statistically significant. All other figures were significant at from P<0.02 to P<0.001.

[2] = Inventors' study of antiobesity, antidiabetic and anorectic effect of prior-art compounds; settings: according to the inventors' study; result in words
Text: South African Patent No. 67/3108 describes the anti- depressive activity of 1-(4-chlorophenylthio)-2-aminopropane of the formula: [drawing 8] but this patent also says nothing about antiobesity or antidiabetic action. […] In contrast, the compounds of this invention exert strong and long-lasting antiobesity and antidiabetic effects because of their having the particular substituent (halogen) at the particular (para) position of the benzene ring and having the particular secondary amine-type structure.

[3] = Suppression of food intake in rats; settings: male Sprague-Dawley rats fasted for 24 hours, 20 mg/kg by oral gavage, food given after 0.5 hour; control = 100%; ** P<0.01, * P<0.05
Procedure: Male 7-week-old rats of Sprague-Dawley strain were fasted for 24 hours and assigned to groups of 6 animals. A solution of .20 mg/kg of each test compound in distilled water was administered by oral gavage and after 0.5 hour, food (CE-2 powder) was given. The food intake in each group was measured at 1 hour and 2 hours thereafter and the results were compared with the food intake of control animals given distilled water only. The figures in the table denote the food intake percents, with the food intake of control animals being taken as 100%. By the term "gavage" is meant compulsory feeding.

fatty acid synthesis = assay: Inhibition of fatty acid synthesis (glucose-U-14C incorporation into fatty acid fractions); settings: Rattus norvegicus, Sprague-Dawley rats, 20 mg/kg oral, glucose-U-14C 30 minutes later, sacrificed after 60 minutes, versus distilled water control
Procedure: Male 7-week-old Sprague-Dawley rats were acclimatised to 2-hours-a-day feeding (CE-2 powder, Clea Japan) for 10 days and assigned to groups of 5 animals. The animals were orally given 20 mg/kg of l-(4-chlorophenylthio)-2-methylaminopropane fumarate as dissolved in distilled water, and,30 minutes thereafter, glucose-U-^14C (85 pCi/3 g/kg) was orally administered. After 60 minutes, each animal was sacrificed and the radioactivities incorporated into the fatty acid fractions of the liver and the epididymal adipose tissues were determined.

[4] = 1 h, read-out: Food intake (%) 1 hour after administration
[5] = read-out: Food intake (%) 0.5 hour after administration

CNC(C)CSc1ccc(Cl)c(Cl)c1 (racemic) [Example 7, l-(3,4-dichlorophenylthio)-2-methylamino-propane]
response vs control in vivo at 50 mg/kg [1, 4]: 63.2%
response vs control in vivo at 50 mg/kg [1, 5]: 54.9%

CC(N)CSc1ccc(Cl)cc1 (centres unmarked) [1-(4-chlorophenylthio)-2-aminopropane, reference compound]
response vs control in vivo at 50 mg/kg [1, 4]: 85.5%
response vs control in vivo at 50 mg/kg [1, 5]: 69.5%
anorectic effect [2]: only a weak transient anorectic effect

CNC(C)CSc1ccccc1 (centres unmarked) [1-phenylthio-2-methyl-aminopropane, reference compound]
response vs control in vivo at 50 mg/kg [1, 4]: 112%
response vs control in vivo at 50 mg/kg [1, 5]: 106%

CNC(C)CSc1ccc(Cl)cc1.O=C(O)/C=C/C(=O)O (centres unmarked) [Example 1, 1-(4-chlorophenylthio)-2-methylaminopropane fumarate]
response vs control in vivo at 50 mg/kg [1, 4]: 55.2%
response vs control in vivo at 50 mg/kg [1, 5]: 43.2%
Food intake (%) 1 hour after administration [3]: 43.9* %
Food intake (%) 2 hours after administration [3]: 61.9** %
inhibition at 20 mg/kg (fatty acid synthesis; adipose tissues, read-out: relative inhibition rate, radioactivity incorporated into the fatty acid fraction of the epididymal adipose tissues): 58.8%
inhibition at 20 mg/kg (fatty acid synthesis; liver, read-out: relative inhibition rate, radioactivity incorporated into the fatty acid fraction of the liver): 46.6%

CCNC(C)CSc1ccc(Cl)cc1 (centres unmarked) [Example 3, 1-(4-chlorophenylthio)-2-ethylaminopropane fumarate]
response vs control in vivo at 50 mg/kg [1, 4]: 69.4%
response vs control in vivo at 50 mg/kg [1, 5]: 40.7%

CC(CSc1ccc(Cl)cc1)NCCO (centres unmarked) [Example 4, 1-(4-chlorophenylthio)-2-(2-hydroxyethylamino)propane fumarate]
response vs control in vivo at 50 mg/kg [1, 4]: 67.6%
response vs control in vivo at 50 mg/kg [1, 5]: 65.9%

CNC(C)CSc1ccc(F)cc1 (centres unmarked) [Example 5, 1-(4-fluorophenylthio)-2-methylaminopropane]
response vs control in vivo at 50 mg/kg [1, 4]: 66.5%
response vs control in vivo at 50 mg/kg [1, 5]: 57.9%

CNC(C)CSc1ccc(Br)cc1 (centres unmarked) [Example 6, 1-(4-bromophenylthio)-2-methylamino-propane]
response vs control in vivo at 50 mg/kg [1, 4]: 72.1%
response vs control in vivo at 50 mg/kg [1, 5]: 70.8%

CN[C@@H](C)CSc1ccc(Cl)cc1 [Example 8, (S)-l-(4-chlorophenylthio)-2-methylaminopropane fumarate]
Food intake (%) 1 hour after administration [3]: 38.8** %
Food intake (%) 2 hours after administration [3]: 56.1** %
